What all share (type): cell-based
Assay [1] concerns ZAP-70. The assay is described as follows: CD3-mediated tyrosine phosphorylation of ZAP-70 in Jurkat cells. The settings on record: 100 μM 3 hours, OKT3. The procedure: Jurkat T cells (2×10^6−1×10^7) were centrifuged at 1,000×g for 5 minutes, rinsed with RPMI, resuspended in RPMI supplemented with 2% dialyzed FBS, 0.5% defatted BSA, and incubated with or without 100 μM 2-bromopalmitate at 8×10^5 cells/ml for 3 hours. The cells were centrifuged, washed with RPMI and resuspended in RPMI at 1×10^7−1×10^8 cells/ml. The cells were then activated with anti-CD3 OKT3 mAb (0.3 mg/ml) for 3 min at 37° C., quickly spun down, washed once with cold RPMI and once with cold STE, and lysed in RIPA Samples were solubilized in 1× sample buffer containing 5% β-mercaptoethanol and subjected to SDS-PAGE, followed by immunoblotting with anti-phosphotyrosine antibody (PY99). For analysis of specific proteins, RIPA lysates were immunoprecipitated with the specific antibodies O/N, and immunoblotted for phosphotyrosine. Alternatively, proteins were immunoprecipitated with agarose-conjugated anti phosphotyrosine antibody and blotted for the specific proteins.
In order to identify the individual proteins whose tyrosine phosphorylation is affected by 2-bromopalmitate, lysates were immunoprecipitated with a panel of specific antibodies, and immunoblotted for phosphotyrosine. Alternatively, lysates were immunoprecipitated with an antiphosphotyrosine antibody, and blotted with antibodies to specific proteins.

Assay [2] deals with GαO(10)-Fyn. The assay is described as follows: Membrane binding of Gαo(10)-Fyn chimera in COS-1 cells. The note with it: COS-1, 2-bromopalmitate overnight, 5 min label. On the procedure: (§1) For analysis of newly synthesized Fyn, cells were cultured overnight as descibed above, then starved for 1 hr in DMEM minus methionine and cysteine containing 2% dialyzed FBS, 0.5% defatted BSA with or without 100 μM 2-bromopalmitate. Cells were labeled for 5 minutes with Trans^35S-Label (ICN, Irvine, Calif.), then fractionated as described above. Gels were treated for 20 minutes with 1M salicylic acid prior to drying. The Gαo(10)-Fyn chimera was labeled for 5 min and GAP-43 Fyn chimera was labeled for 2 hours and fractionated according to the above conditions.
(§2) Each of these three sequences was appended onto the Fyn protein. Gαo(10)-Fyn and GAP43(10)-Fyn are chimeric constructs with the first 10 amino acids of Gαo or GAP-43, respectively, in place of the first 10 amino acids of wt Fyn. These constructs have been previously described (12,13). In addition, the H-Ras tail was fused to the C-terminus of a non-acylated Fyn mutant (G2A,C3SFyn-HRas). This construct contains full length Fyn with mutations in the N-terminal myristoylation and palmitoylation sites, but with the C-terminus of H-Ras available for prenylation and palmitoylation.

Assay [3] has as its system Jurkat T cells. The assay is described as follows: Calcium mobilization assay in Jurkat T cells (fluo-3, flow cytometry). The procedure: Jurkat cells were treated with 2-bromopalmitate as described above. The cells (2×10^5) were collected by centrifugation and resuspended at 2×10^6 cells/ml in RPMI containing in 50 μM fluo-3 with or without 100 μM 2-bromopalmitate for 30 minutes at room temperature. Cells loaded with fluo-3 were then collected by centrigation, washed with Hank's Buffered Saline Solution (5.4 mM KCl, 0.3 mM Na2HPO4, 0.4 mM KH2PO4, 4 mM NaHCO3, 1.3 mM CaCl2, 0.5 mM MgCl2, 0.6 mM MgSO4, 137 mM NaCl, 5.6 mM glucose, 20 mM Hepes pH 7.4) and resuspended in the same buffer at 5×10^5 cells/ml at 37° C. To initiate calcium flux, the cells were activated with OKT3 antibody as described above, and analyzed for free calcium ion by measurement of fluo-3 fluoresence emission by flow cytometry.
Jurkat cells were incubated with or without 2-bromopalmitate, washed and stained with the fluorescent dye fluo-3 (50 μM). Cells were activated with OKT3 antibody and analyzed by flow cytometry. […] No effect of 2-bromopalmitate on cells incubated in the absence of OKT3 was noted.

In assay [4] the target is T1, Fyn (Homo sapiens, UniProt P06241).
T1 construct: expressed in transfected cells; host or cells: COS-1
The assay is described as follows: Fyn fatty acylation (IC13/IC16) in transfected Jurkat T cells. The settings on record: 100 μM, 3 hours preincubation. On the procedure:
The syntheses of 13-[^125I]-iodotridecanoic acid (IC13)or 16-[^125I]-iodohexanoic acid (IC16) were carried out as described previously (39). Cell labeling was carried out as described (12,13) with modifications. Briefly, each 60 mm plate of Fyn transfected COS-1 cells was incubated O/N in DMEM containing 2.5% FBS, 0.5% defatted BSA (Sigma) with or without 100 μM 2-bromopalmitate or 50 μM polyunsaturated fatty acid. Prior to labeling, the cells were incubated for 1 hr with 1 ml of DMEM containing 2% dialyzed FBS, then labeled for 4 hours with 25-50 μCi IC13 or IC16 in DMEM containing 2% dialyzed FBS, 0.5% defatted BSA with or without 2-bromopalmitate or polyunsaturated fatty acid. Labeled cells were washed three times with cold STE (100 mM NaCl, 10 mM Tris pH 7.4, 1 mM EDTA) and lysed in 0.6 ml of cold RIPA buffer containing protease inhibitors (10 μg/ml each of benzamidine, AEBSF, TPCK and TLCK, 1.5 μg/ml each of Leupeptin, Pepstatin A and Aprotinin). Lysates were clarified at 100,000×g for 15 min at 4° C. in a Beckman TL-100 ultracentrifuge. […] Gels were dried between cellophane and analyzed by phosphorimaging after 12-36 hours exposure. […]
The Src family kinases Fyn and Lck play critical roles in T cell receptor (TCR) mediated signaling. […] Total protein levels were monitored by immunoprecipitation followed by immunoblotting with anti-Fyn antibody.

Assay [5] relates to GAP43(10)-Fyn. The assay is described as follows: Membrane binding of GAP43(10)-Fyn chimera in COS-1 cells. The note with it: COS-1, 2-bromopalmitate overnight, 2 hours label. The procedure: as §1, §2

T1 sequence (P06241 whole entry, species assumed): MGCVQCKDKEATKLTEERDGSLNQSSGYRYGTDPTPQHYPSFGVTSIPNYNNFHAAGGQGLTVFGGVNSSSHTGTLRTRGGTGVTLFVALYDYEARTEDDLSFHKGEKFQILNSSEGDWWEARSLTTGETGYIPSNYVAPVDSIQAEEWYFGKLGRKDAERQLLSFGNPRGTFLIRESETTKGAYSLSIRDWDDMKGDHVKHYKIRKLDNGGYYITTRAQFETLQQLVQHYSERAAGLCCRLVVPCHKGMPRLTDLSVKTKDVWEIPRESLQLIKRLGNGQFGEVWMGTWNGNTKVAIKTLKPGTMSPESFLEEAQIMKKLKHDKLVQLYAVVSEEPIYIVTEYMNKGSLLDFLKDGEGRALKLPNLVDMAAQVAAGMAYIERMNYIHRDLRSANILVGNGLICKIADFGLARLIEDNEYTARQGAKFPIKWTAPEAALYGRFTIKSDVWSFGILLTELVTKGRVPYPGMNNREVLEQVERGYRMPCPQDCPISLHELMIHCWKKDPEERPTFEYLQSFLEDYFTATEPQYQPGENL

For `CCCCCCCCCCCCCCC(Br)C(=O)O` (stereo not shown) [2-bromopalmitate], in assay [1], the ZAP-70 phosphorylation inhibited is 50%. In assay [2], the “inhibition of membrane binding of GαO(10)-Fyn” value is “to the same extent as wt Fyn”. The “calcium flux in response to T cell receptor activation” value in assay [3] (100 μM, OKT3 activated) is given as “shut down almost completely”. In assay [3] (no OKT3), the “effect on calcium in cells incubated in the absence of OKT3” value is listed as “No effect”. Further, in assay [4] (IC13), the “Fyn myristoylation inhibited relative to untreated controls” value is on record as 75%. Also, the “Fyn palmitoylation inhibited relative to untreated controls” value in assay [4] (IC16) came to 90%. The “inhibition of membrane binding of GAP43(10)-Fyn” value in assay [5] is reported as “to the same extent as wt Fyn”.
